Experimental data taken from patent US9249453B2, “Method for identifying a malodor inhibitor” (Kao Corporation, priority 2011, dated 2016).
Entries after “also recorded” stand apart in the source; their conditions may differ.

Columns and labels:
OR2W1 [1] = molecular target: T1, OR2W1 (Homo sapiens, UniProt Q9Y3N9); assay: Luciferase reporter assay: odorant response of OR2W1 expressed in HEK293 cells; format: cell-based; conditions: for response of olfactory receptor at different concentration: 0, 3, 10, 30, 100, 300, and 1000 μM odorant, OR2W1, FIG. 2/3
T1 construct: expressed in transfected cells; host or cells: HEK293
T1 sequence (Q9Y3N9 1-320): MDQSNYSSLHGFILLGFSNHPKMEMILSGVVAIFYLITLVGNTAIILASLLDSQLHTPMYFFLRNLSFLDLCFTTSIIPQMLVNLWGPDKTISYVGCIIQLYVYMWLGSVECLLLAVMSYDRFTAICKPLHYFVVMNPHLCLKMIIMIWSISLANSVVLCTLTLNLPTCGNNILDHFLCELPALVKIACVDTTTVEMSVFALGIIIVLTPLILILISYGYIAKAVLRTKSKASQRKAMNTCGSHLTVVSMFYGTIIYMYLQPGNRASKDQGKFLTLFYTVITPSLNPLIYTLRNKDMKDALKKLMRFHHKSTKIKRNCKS
Procedure: (§1) Each of the 369 types of human olfactory receptors was expressed in HEK293 cells. A reaction solution having a composition shown in Table 1 was prepared on a clean bench, and left to stand for 15 minutes. The solution was dispensed to each well of a 96-well plate (BD). Subsequently, HEK293 cells (100 μL, 3×10^5 cells/cm^2) were seeded in each well and cultured for 24 hours in an incubator at 37° C. and under 5% CO2 conditions.
(§2) The olfactory receptor expressed in HEK293 cells activates adenylate cyclase with the aid of Gαs present in cells, to thereby increase intracellular cAMP level. In this study, odorant response was measured by a luciferase reporter gene assay which monitored the intracellular cAMP level as the luminescence value derived from a firefly luciferase gene (fluc2P-CRE-hygro). Also, a Renilla luciferase gene fused downstream of a CMV promoter (hRluc-CMV) was also transfected to HEK293 cells as an internal standard to correct errors in gene transfer efficiency and number of cells.
(§3) The culture medium was removed from the culture plate produced in (3) above, and a solution (75 μL) containing an odorant substance (1 mM skatole) in CD293 medium (Invitrogen) was added to each well. […] Luciferase activity was measured by means of a Dual-Glo™ luciferase assay system (promega) according to an instruction manual thereof. The luminescence value derived from firefly luciferase induced by odorant stimulation was divided by the luminescence value of cells which were not stimulated with odorants. […]
(§4) In a manner similar to that employed in Example 1, each of olfactory receptor OR2W1 (SEQ ID NO: 2), OR5K1 (SEQ ID NO: 4), OR5P3 (SEQ ID NO: 6), and OR8H1 (SEQ ID NO: 8) was expressed with RTP1S mutant (SEQ ID NO: 12) in HEK293 cells. The response of each receptor to skatole (0, 3, 10, 30, 100, 300, and 1000 μM) was determined.
(§5) In a manner similar to that employed in Example 2, the response of each olfactory receptor to skatole and indole (each 0, 3, 10, 30, 100, 300, and 1000 μM) was determined.

OR8H1 [2] = molecular target: T2, OR8H1 (Homo sapiens, UniProt Q8NGG4); assay: Luciferase reporter assay: odorant response of OR8H1 expressed in HEK293 cells; format: cell-based; conditions: for response of olfactory receptor at different concentration: 0, 3, 10, 30, 100, 300, and 1000 μM odorant, OR8H1, FIG. 2/3
T2 construct: expressed in transfected cells; host or cells: HEK293
T2 sequence (Q8NGG4 1-311): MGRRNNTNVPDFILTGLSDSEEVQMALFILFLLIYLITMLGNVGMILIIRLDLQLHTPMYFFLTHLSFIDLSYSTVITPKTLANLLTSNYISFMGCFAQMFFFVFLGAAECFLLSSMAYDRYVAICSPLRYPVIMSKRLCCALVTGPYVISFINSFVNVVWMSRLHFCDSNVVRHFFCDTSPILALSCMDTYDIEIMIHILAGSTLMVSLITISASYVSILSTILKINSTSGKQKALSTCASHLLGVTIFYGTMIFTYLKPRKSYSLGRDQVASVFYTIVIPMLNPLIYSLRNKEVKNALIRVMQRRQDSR
Procedure: as §1, §2, §3, §4, §5

OR5K1 [3] = molecular target: T3, OR5K1 (Homo sapiens, UniProt Q8NHB7); assay: Luciferase reporter assay: odorant response of OR5K1 expressed in HEK293 cells; format: cell-based; conditions: for response of olfactory receptor at different concentration: 0, 3, 10, 30, 100, 300, and 1000 μM odorant, OR5K1, FIG. 2/3
T3 construct: expressed in transfected cells; host or cells: HEK293
T3 sequence (Q8NHB7 1-308): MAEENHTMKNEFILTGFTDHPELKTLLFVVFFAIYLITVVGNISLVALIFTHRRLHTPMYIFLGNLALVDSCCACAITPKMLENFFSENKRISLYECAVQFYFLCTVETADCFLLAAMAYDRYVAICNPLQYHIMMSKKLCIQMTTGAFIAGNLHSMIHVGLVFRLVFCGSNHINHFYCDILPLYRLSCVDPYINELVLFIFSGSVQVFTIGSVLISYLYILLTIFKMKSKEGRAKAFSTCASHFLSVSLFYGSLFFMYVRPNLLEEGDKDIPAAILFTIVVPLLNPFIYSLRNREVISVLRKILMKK
Procedure: as §1, §2, §3, §4, §5

OR5P3 [4] = molecular target: T4, OR5P3 (Homo sapiens, UniProt Q8WZ94); assay: Luciferase reporter assay: odorant response of OR5P3 expressed in HEK293 cells; format: cell-based; conditions: for response of olfactory receptor at different concentration: 0, 3, 10, 30, 100, 300, and 1000 μM odorant, OR5P3, FIG. 2/3
T4 construct: expressed in transfected cells; host or cells: HEK293
T4 sequence (Q8WZ94 1-311): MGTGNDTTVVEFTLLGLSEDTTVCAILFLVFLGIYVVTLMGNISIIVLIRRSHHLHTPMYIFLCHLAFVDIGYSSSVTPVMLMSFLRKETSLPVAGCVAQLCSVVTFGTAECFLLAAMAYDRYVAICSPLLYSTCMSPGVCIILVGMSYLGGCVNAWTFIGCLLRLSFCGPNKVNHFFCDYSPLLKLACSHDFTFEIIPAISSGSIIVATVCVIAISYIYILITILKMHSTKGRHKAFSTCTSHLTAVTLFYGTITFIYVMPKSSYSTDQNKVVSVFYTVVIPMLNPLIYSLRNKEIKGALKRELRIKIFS
Procedure: as §1, §2, §3, §4, §5

OR2W1 [5] = molecular target: T1, OR2W1; assay: Luciferase reporter assay: suppression of the skatole response of OR2W1 expressed in HEK293 cells; format: cell-based; conditions: 4 h; test substance 100 μM mixed with 300 μM skatole, HEK293 cells expressing OR2W1; read-out: Inhibition rate 2W1
Procedure: as §1, with “A” for “Each of the 369 types of human olfactory receptors was expressed in HEK293 cells. A”
as §2
(§6) Cell culturing was performed for four hours in a CO2-incubator, whereby the luciferase gene sufficiently expressed in the cells. Luciferase activity was measured by means of a Dual-Glo™ luciferase assay system (promega) according to an instruction manual thereof. The luminescence value derived from firefly luciferase induced by odorant stimulation was divided by the luminescence value of cells which were not stimulated with odorants. The thus-obtained—called “fold increase”—was employed as an index for response intensity.
(§7) The response inhibition rate of a test substance was calculated as follows. Firstly, luminescence value derived from firefly luciferase induced by stimulation with skatole (X), and luminescence value in cells which expressed the same receptor but were not stimulated with skatole (Y) were determined. By subtracting Y from X, the receptor activity by stimulation with skatole alone (X−Y) was determined. Similarly, the luminescence value induced by stimulation with a mixture of skatole and a test substance (Z) was determined. Through subtracting Y (the luminescence value in cells which expressed the same receptor but were not stimulated with skatole) from Z, the receptor activity (Z−Y) by stimulation with a mixture of skatole and the test substance was obtained. From the thus-obtained receptor activity by stimulation with skatole alone (X−Y) and the receptor activity in the presence of a test material (Z−Y), the response inhibition rate of the test substance was calculated by the following equation: Inhibition rate (%)={1−(Z−Y)/(X−Y)}×100.
(§8) In each case, multiple independent experiments were performed in duplicate, and the average of each experiment was used.

[6] = Sensory test by panelists: suppression of skatole odor; format: in vivo; conditions: Example 6: test substance diluted by 1% with propylene glycol, n=3, FIG. 5
Procedure: A cotton ball was put into a glass bottle (Hakuyo. […] The glass bottle was left to stand for one night at room temperature, to thereby sufficiently evaporate the odorant molecule. The sensory test was performed by four panelists. In the case where skatole alone was added to a glass bottle, the odor intensity was rated to 5. Then, the malodor intensity in the case where skatole and a test substance were added was evaluated with a rating of 0 to 10 (by 0.5) (i.e., 20 ratings) In order to investigate specificity of malodor suppressing effect of a test substance identified in Example 4, the sensory test was also performed with hexanoic acid, a malodorous compound but structurally differs from skatole. In the experiment, hexanoic acid diluted by 1% with propylene glycol was used as a malodorous compound, and methyl dihydrojasmonate diluted by 1% with propylene glycol was used as a test substance.

OR8H1 [7] = molecular target: T2, OR8H1; assay: Luciferase reporter assay: suppression of the skatole response of OR8H1 expressed in HEK293 cells; format: cell-based; conditions: 4 h; test substance 100 μM mixed with 300 μM skatole, HEK293 cells expressing OR8H1; read-out: Inhibition rate 8H1
Procedure: as §1, with “A” for “Each of the 369 types of human olfactory receptors was expressed in HEK293 cells. A”
as §2, §6, §7, §8

OR5K1 [8] = molecular target: T3, OR5K1; assay: Luciferase reporter assay: suppression of the skatole response of OR5K1 expressed in HEK293 cells; format: cell-based; conditions: 4 h; test substance 100 μM mixed with 300 μM skatole, HEK293 cells expressing OR5K1; read-out: Inhibition rate 5K1
Procedure: as §1, with “A” for “Each of the 369 types of human olfactory receptors was expressed in HEK293 cells. A”
as §2, §6, §7, §8

[9] = Sensory test by panelists: suppression of hexanoic acid odor; format: in vivo; conditions: Example 6: hexanoic acid 1% and test substance 1% in propylene glycol, n=3, FIG. 5
Procedure: A cotton ball was put into a glass bottle (Hakuyo. Glass No. 11, capacity: 110 mL), and skatole diluted by 0.001% with propylene glycol (20 μL) and a test substance also diluted by 0.001% (20 μL) were added to the cotton ball. The glass bottle was left to stand for one night at room temperature, to thereby sufficiently evaporate the odorant molecule. The sensory test was performed by four panelists. In the case where skatole alone was added to a glass bottle, the odor intensity was rated to 5. Then, the malodor intensity in the case where skatole and a test substance were added was evaluated with a rating of 0 to 10 (by 0.5) (i.e., 20 ratings) In order to investigate specificity of malodor suppressing effect of a test substance identified in Example 4, the sensory test was also performed with hexanoic acid, a malodorous compound but structurally differs from skatole. In the experiment, hexanoic acid diluted by 1% with propylene glycol was used as a malodorous compound, and methyl dihydrojasmonate diluted by 1% with propylene glycol was used as a test substance.

OR5P3 [10] = molecular target: T4, OR5P3; assay: Luciferase reporter assay: suppression of the skatole response of OR5P3 expressed in HEK293 cells; format: cell-based; conditions: test substance 100 μM mixed with 300 μM skatole, HEK293 cells expressing OR5P3
Procedure: as §1, with “A” for “Each of the 369 types of human olfactory receptors was expressed in HEK293 cells. A”
as §2, §6, §7, §8

SMILES	response of olfactory receptor at different concentration (OR2W1 [1])	response of olfactory receptor (fold increase) (OR2W1 [1]; 1 mM odorant, OR2W1, FIG. 1)	response of olfactory receptor at different concentration (OR8H1 [2])	response of olfactory receptor (fold increase) (OR8H1 [2]; 1 mM odorant, OR8H1, FIG. 1)	response of olfactory receptor at different concentration (OR5K1 [3])	response of olfactory receptor (fold increase) (OR5K1 [3]; 1 mM odorant, OR5K1, FIG. 1)	response of olfactory receptor at different concentration (OR5P3 [4])	response of olfactory receptor (fold increase) (OR5P3 [4]; 1 mM odorant, OR5P3, FIG. 1)	inhibition at 100 µM (OR2W1 [5]) [%]	suppression effect on skatole odor [6]	inhibition at 100 µM (OR8H1 [7]) [%]	inhibition at 100 µM (OR5K1 [8]) [%]	suppression effect on hexanoic acid odor [9]	Inhibition rate 5P3 (OR5P3 [10])
Cc1c[nH]c2ccccc12 [skatole]	dose-dependent response; also recorded: exhibited a response	exhibited response	dose-dependent response; also recorded: exhibited a response	exhibited response	dose-dependent response; also recorded: exhibited a response	exhibited response	dose-dependent response; also recorded: exhibited a response	exhibited response	–	–	–	–	–	–
c1ccc2[nH]ccc2c1 [indole]	exhibited a response	–	exhibited a response	–	exhibited a response	–	exhibited a response	–	–	–	–	–	–	–
CCCCCC1C(=O)CCC1CC(=O)OC (stereo not shown) [methyl dihydrojasmonate, Methyl 2-penthyl-3-oxocyclopent-1-yl acetate]	–	–	–	–	–	–	–	–	50 to 80	suppressed skatole odor	50 to 80	< 20	did not suppress hexanoic acid odor	B (B >50%)
CC1(C)CCCC2=C1CC(C=O)CC2 (stereo not shown) [Cyclemone A, 1,2,3,4,5,6,7,8-octahydro-8,8-dimethyl-2-naphthaldehyde]	–	–	–	–	–	–	–	–	50 to 80	–	20 to 50	20 to 50	–	C (C >20%)
